# According to ChEMBL document CHEMBL1201862, “PubChem BioAssay data set” (2004):
#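 Cells were grown in 96-well plates and exposed to each compound for 48 hours at five concentrations; endpoints were interpolated linearly between bracketing concentrations, or set to the highest concentration if not reached. The concentration for 50% growth inhibition is given as GI50.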 Activity calls are given as the source filed them. Cut-off read from the data, not from the text of the source: active = GI50 up to about 1.1 µM and inactive = higher.
# Experiments:
# Assay in all cases: DTP human tumour cell line panel, 48 h
# BT-549 = tested on: BT-549
# LXFL 529 = tested on: LXFL 529
# SNB-78 = tested on: SNB-78
# KM-20L2 = tested on: KM-20L2
# RXF 631 = tested on: RXF 631
# M19-MEL = tested on: M19-MEL
# DMS-273 = tested on: DMS-273
# HOP-18 = tested on: HOP-18
# DLD-1 = tested on: DLD-1
SMILES,GI50 (BT-549),GI50 (LXFL 529),GI50 (SNB-78),GI50 (KM-20L2),GI50 (M19-MEL),GI50 (DMS-273),GI50 (DLD-1),also measured
CCCCCCOc1ccc(NC2=C(Cl)C(=O)c3cccnc3C2=O)cc1,3.22 µM (inactive),,,,,,,
c1ccc(CCN2CCOCC2)nc1,> 100 µM (inactive),,,,,,,
Cn1c(=O)cc(NCCc2ccccc2)[nH]c1=O,47.8 µM (inactive),,,,,,,
OCC1CCCC(n2cnc3c(S)ncnc32)O1 (configuration not stated),> 100 µM (inactive),,,,,,,
CCCC1c2c(ccc3ccccc23)Oc2ccc3ccccc3c21,> 100 µM (inactive),,,,,,,
Cc1nc(N)nc(S)c1CCCNc1ccccc1,70 µM (inactive),,,,,,,
CCC(=O)C(C(=O)CC)c1c(OC(=O)c2ccccc2)ccc(O)c1C(=O)OC,,> 100 µM (inactive),> 100 µM (inactive),> 100 µM (inactive),> 100 µM (inactive),> 100 µM (inactive),,GI50 (RXF 631): > 100 µM (inactive)
COc1cc2c3c4[n+](cc2c(OC)c1OC)CCC4CCC3 (configuration not stated),> 100 µM (inactive),,,,,,,
COc1ccc2c(c1)c1c(n2CCN(C)C)-c2cccc(OC)c2CC1,20 µM (inactive),,,,,,,
CCCCc1c2c(nc3c1CCC/C3=C\c1ccccc1)C(=O)CCC2,,35.6 µM (inactive),19.6 µM (inactive),22.6 µM (inactive),18.2 µM (inactive),26.1 µM (inactive),,GI50 (HOP-18): 25.6 µM (inactive)
O=C(c1ccccc1F)c1c(NCc2ccccc2)c(=O)c1=O,> 100 µM (inactive),,,,,,,
Cc1ccc(S(=O)(=O)NC(=O)C2=C3SCCN3C(=O)N(S(=O)(=O)c3ccc(C)cc3)C2c2ccccc2)cc1 (configuration not stated),> 100 µM (inactive),,,,,,,
COC(=O)c1cc(=O)nc2sc3cccc(C)c3n12,55.6 µM (inactive),,,,,,,
O=C(NCC(O)COc1ccccc1)c1ccccc1O (configuration not stated),27.7 µM (inactive),,,,,,,
C1=CC(=P(c2ccccc2)(c2ccccc2)c2ccccc2)C=C1,,3.63 µM (inactive),7.5 µM (inactive),11.3 µM (inactive),4.04 µM (inactive),9.91 µM (inactive),12.5 µM (inactive),GI50 (RXF 631): 19.4 µM (inactive)
c1ccc(C2SCC3=Nc4ccccc4CN32)cc1 (configuration not stated),> 100 µM (inactive),,,,,,,
c1cncc(CSc2nc3ccccc3nc2-c2cccs2)c1,,,> 100 µM (inactive),,> 100 µM (inactive),> 100 µM (inactive),> 100 µM (inactive),GI50 (HOP-18): > 100 µM (inactive)
COc1ccc(-c2nc(-c3cnccn3)n(C3OC(CO)C(O)C(O)C3O)n2)cc1 (configuration not stated),> 100 µM (inactive),,,,,,,
Cc1cc(O)nc(NN2C(Cl)C(=O)C2c2ccc(O)cc2)n1 (configuration not stated),9.1 µM (inactive),10.3 µM (inactive),5.87 µM (inactive),18.7 µM (inactive),10.5 µM (inactive),5.32 µM (inactive),,GI50 (HOP-18): 14.6 µM (inactive)
O=[N+]([O-])C1CC/C(=N/O)c2nonc21 (configuration not stated),> 10 µM (inactive),,,,,,,
c1ccc(/C(=N/Nc2cnccn2)c2ncccn2)cc1,> 100 µM (inactive),,,,,,,
COC(=O)C1=CCC[C@H]2[C@@]1(COC(C)=O)CC[C@@H](C)[C@]2(C)CC(=O)c1ccoc1,10.9 µM (inactive),,,,,,,

SMILES,GI50 (BT-549),GI50 (LXFL 529),GI50 (SNB-78),GI50 (KM-20L2),GI50 (M19-MEL),GI50 (DMS-273),GI50 (DLD-1),also measured
N#CC(C(=O)C(=O)Nc1ccccc1)c1ccccc1 (configuration not stated),,> 100 µM (inactive),,> 100 µM (inactive),> 100 µM (inactive),> 100 µM (inactive),> 100 µM (inactive),
C=C1C(=O)OC2CC(C)C(/C=C/C(C)=O)=CCC12 (configuration not stated),> 100 µM (inactive),,,,,,,
COC(=O)C(/C(=N/NC(N)=O)C(=O)Nc1c(C)cccc1C(C)(C)C)c1nc2ccc(Cl)cc2nc1O (configuration not stated),,> 100 µM (inactive),> 100 µM (inactive),> 100 µM (inactive),> 100 µM (inactive),> 100 µM (inactive),> 100 µM (inactive),GI50 (HOP-18): > 100 µM (inactive)
CCOC(=O)C1CCC(=O)N1C(=O)c1ccc(Cl)cc1 (configuration not stated),> 100 µM (inactive),,,,,,,
N#Cc1cc(Sc2ccc(N)c(C#N)c2)ccc1N,19 µM (inactive),,,,,,,
Cc1ccc2nc(/C=N/c3ccc(Cl)cc3)cc(C)c2c1,13.9 µM (inactive),,,,,,,
CO/N=C(/C(=O)Nc1c[n+](CC(=O)[O-])cs1)c1csc(N)n1,,> 100 µM (inactive),> 100 µM (inactive),> 100 µM (inactive),,> 100 µM (inactive),> 100 µM (inactive),GI50 (HOP-18): > 100 µM (inactive)
O=C(CSCC(=O)N/N=C/c1cccc(OCc2ccccc2)c1)N/N=C/c1cccc(OCc2ccccc2)c1,68.1 µM (inactive),,,,,,,
Cn1c(O)c(C(=O)Nc2cccs2)c(=O)[nH]c1=S,,12.1 µM (inactive),18.9 µM (inactive),19.7 µM (inactive),19.1 µM (inactive),,21.2 µM (inactive),GI50 (HOP-18): 0.0865 µM (active)
Cc1cc2c(cc1C)C(=O)C1(C2)Cc2c(ccc(C)c2C)C1=O (configuration not stated),> 100 µM (inactive),,,,,,,
N#CC(Cl)CS(=O)(=O)c1ccccc1 (configuration not stated),16.7 µM (inactive),,21.1 µM (inactive),18.7 µM (inactive),15.8 µM (inactive),,1.93 µM (inactive),GI50 (HOP-18): 8.61 µM (inactive)
COc1ccc(NC(=O)CCc2cc(-c3ccc(O)c(OC)c3)nc(NC#N)n2)cc1,,> 100 µM (inactive),> 100 µM (inactive),> 100 µM (inactive),> 100 µM (inactive),,> 100 µM (inactive),GI50 (HOP-18): > 100 µM (inactive)
Clc1ccc(-c2nnc(-c3nn(-c4ccccc4)c4nc5ccccc5nc34)o2)cc1,,27.2 µM (inactive),> 100 µM (inactive),> 100 µM (inactive),70.6 µM (inactive),47.5 µM (inactive),18.9 µM (inactive),GI50 (HOP-18): > 100 µM (inactive)
COc1cc2c(c(OC3OC(CO)C(O)C(O)C3O)c1)C(=O)CC(c1ccc(O)cc1)O2 (configuration not stated),> 100 µM (inactive),,,,,,,
CC1(C)C2CC(=O)C1(C)C(OCc1ccccc1)C2 (configuration not stated),54.6 µM (inactive),,,,,,,
Clc1ccc(Nc2nnc(CNc3ccc(-c4nnc(Nc5ccc(Cl)cc5)s4)cc3)s2)cc1,71.9 µM (inactive),,,,,,,
O=C(N/C(=C/c1ccc(Cl)cc1Cl)c1nc2ccccc2s1)c1ccccc1,21.1 µM (inactive),,,,,,,
OCCNCO,,> 100 µM (inactive),> 100 µM (inactive),> 100 µM (inactive),> 100 µM (inactive),> 100 µM (inactive),,
OC(CCN1CCN(CCOC(c2ccc(F)cc2)c2ccc(F)cc2)CC1)c1ccccc1 (configuration not stated),14.1 µM (inactive),,,,,,,
CC(C)=CC1C(C(=O)Oc2ccccc2C(C)C)C1(C)C (configuration not stated),30 µM (inactive),,,,,,,
CS(=O)(=O)C1(Br)S(=O)(=O)OCCOS1(=O)=O,,> 100 µM (inactive),> 100 µM (inactive),> 100 µM (inactive),> 100 µM (inactive),> 100 µM (inactive),> 100 µM (inactive),
COC(=O)/C=C(/C)n1nc2ccccc2n1,> 100 µM (inactive),,,,,,,

SMILES,GI50 (BT-549),GI50 (LXFL 529),GI50 (SNB-78),GI50 (KM-20L2),GI50 (M19-MEL),GI50 (DMS-273),GI50 (DLD-1),also measured
Cc1ccc(NC(=S)C#N)cc1Cl,53 µM (inactive),,,,,,,
CSc1nc2nccnc2c(=O)[nH]1,,> 100 µM (inactive),,> 100 µM (inactive),> 100 µM (inactive),> 100 µM (inactive),> 100 µM (inactive),GI50 (HOP-18): > 100 µM (inactive)
O=C(O)CCSC(=O)Nc1ccc([N+](=O)[O-])cc1,,> 100 µM (inactive),> 100 µM (inactive),,,> 100 µM (inactive),> 100 µM (inactive),
COC(=O)c1c(O)ccc2c1c1c(n2Cc2ccc(OC)cc2)C(=O)c2ccccc2C1,> 100 µM (inactive),,,,,,,
CC(C)(C)[Si](C)(C)OCC1OC(n2cnc3c(N)ncnc32)C(O)C1O (configuration not stated),69.5 µM (inactive),,,,,,,
COc1ccc(-c2oc(/C=N/c3ccccc3)c([N+](=O)[O-])c2-c2ccc(OC)c(OC)c2)cc1OC,,> 100 µM (inactive),> 100 µM (inactive),> 100 µM (inactive),> 100 µM (inactive),> 100 µM (inactive),> 100 µM (inactive),
COC(=O)C1Cc2c([nH]c3ccccc23)[C@H](CC(C)C)N1 (some centres not stated),,> 100 µM (inactive),> 100 µM (inactive),> 100 µM (inactive),> 100 µM (inactive),> 100 µM (inactive),> 100 µM (inactive),GI50 (HOP-18): > 100 µM (inactive)
[O-][S+](c1ccc(O)cc1)c1ccc(O)cc1,,,,> 100 µM (inactive),> 100 µM (inactive),> 100 µM (inactive),> 100 µM (inactive),GI50 (RXF 631): > 100 µM (inactive)
N#Cc1ccc2oc3ccc(C#N)cc3c(=O)c2c1,25.5 µM (inactive),,,,,,,
CCOC(=O)/C=C(/C(=O)OCC)n1cc(C)c(=O)[nH]c1=O,10.3 µM (inactive),,,,,,,
N#CC(C#N)=C(N)/C(C#N)=C\c1ccnc2ccccc12,,17.2 µM (inactive),27.1 µM (inactive),,19 µM (inactive),17.3 µM (inactive),5.71 µM (inactive),GI50 (HOP-18): > 100 µM (inactive)
CC1=NN(c2ccccc2)C(=O)C1C(=O)C(=O)Nc1ccc(C)cc1C (configuration not stated),,> 100 µM (inactive),> 100 µM (inactive),> 100 µM (inactive),> 100 µM (inactive),> 100 µM (inactive),> 100 µM (inactive),GI50 (HOP-18): > 100 µM (inactive)
CC1CCC2(NC1)OC1CC3[C@@H]4CC=C5C=CCC[C@]5(C)C4CC[C@]3(C)C1C2C (some centres not stated),,,39.4 µM (inactive),17.9 µM (inactive),33.9 µM (inactive),> 10 µM (inactive),23.3 µM (inactive),GI50 (HOP-18): 32.2 µM (inactive)
COc1ccc(-c2cc(=O)c3c(O)cccc3o2)c(OC)c1OC,,99.5 µM (inactive),51.4 µM (inactive),> 100 µM (inactive),> 100 µM (inactive),13.7 µM (inactive),> 100 µM (inactive),GI50 (RXF 631): 66.8 µM (inactive)
CC(O)c1cc2c(s1)C(=O)c1scc(C(C)O)c1C2=O (configuration not stated),0.211 µM (active),,,,,,,
Cc1cc(C)c2c(O)cc(-c3ccc4ccccc4c3)nc2n1,40.5 µM (inactive),,,,,,,
Oc1cc(-c2cccc(Cl)c2)nc2cc3c(cc12)OCO3,0.284 µM (active),0.19 µM (active),,,0.327 µM (active),0.327 µM (active),0.245 µM (active),GI50 (HOP-18): 1.5 µM (inactive)
c1ccc(COc2ccc3[nH]c4c5c6ccccc6nc-5c[nH]c4c3c2)cc1,,16 µM (inactive),20.9 µM (inactive),8.02 µM (inactive),,16.6 µM (inactive),12.4 µM (inactive),GI50 (HOP-18): 13.2 µM (inactive)
CCCCCNC(=O)c1cc2cc(CCl)ccc2oc1=O,6.49 µM (inactive),,,,,,,
COc1ccc2[nH]c(Cl)c(/C=C3/C(=O)N(c4ccccc4)c4ccccc43)c2c1,2.67 µM (inactive),,,,,,,
NC(=O)CC[C@H]1C(=O)N=C(N)N1C(=O)OCc1ccccc1,> 100 µM (inactive),,,,,,,
C=C1CC[C@H]2C(C)=CC[C@H]3C(=C)C(=O)O[C@@H]3[C@@H]12 [EREMANTHIN],> 100 µM (inactive),,,,,,,
